#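 Values below derive from 48-hour exposures of cells grown in 96-well plates, with endpoints linearly interpolated between the two concentrations bracketing the appropriate inhibition level. GI50 is the concentration that inhibits growth by half. TGI: total growth inhibition.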
# Tests used:
# Assay in all cases: NCI anticancer screen, dose series, 48 h
# HCT-116 colon = test system: HCT-116 colon
# HOP-62 NSCLC = test system: HOP-62 NSCLC
# SK-OV-3 ovarian = test system: SK-OV-3 ovarian
# A549 NSCLC = test system: A549 NSCLC
# BT-549 breast = test system: BT-549 breast
# HT29 colon = test system: HT29 colon
# HOP-92 NSCLC = test system: HOP-92 NSCLC
# DU-145 prostate = test system: DU-145 prostate
# 786-0 renal = test system: 786-0 renal
# HCC-2998 colon = test system: HCC-2998 colon
SMILES,GI50 (HCT-116 colon) [µM],TGI (HCT-116 colon) [µM],GI50 (HOP-62 NSCLC) [µM],TGI (HOP-62 NSCLC) [µM],GI50 (SK-OV-3 ovarian) [µM],TGI (SK-OV-3 ovarian) [µM],GI50 (A549 NSCLC) [µM],TGI (A549 NSCLC) [µM],GI50 (BT-549 breast) [µM],TGI (BT-549 breast) [µM],GI50 (HT29 colon) [µM],TGI (HT29 colon) [µM],GI50 (HOP-92 NSCLC) [µM],TGI (HOP-92 NSCLC) [µM],GI50 (DU-145 prostate) [µM],TGI (DU-145 prostate) [µM],GI50 (786-0 renal) [µM],TGI (786-0 renal) [µM],GI50 (HCC-2998 colon) [µM],TGI (HCC-2998 colon) [µM]
O=c1c(Cl)nnc2sc3ccccc3n12,20.4,68.3,67.4,> 100,59.9,> 100,39.7,> 100,64.9,> 100,53.7,> 100,20.6,> 100,57,> 100,64.7,> 100,–,–
COc1cc[nH]c1/C=C1\C(=O)Nc2ccc(F)c(C#C[C@@H](O)[C@@H](N)[C@@H](C)O)c21,0.323,2.89,0.647,2,0.744,9.65,0.681,3.13,0.642,1.65,0.448,1.49,0.517,1.96,0.529,3.5,0.708,3.37,0.727,2.64
O=C(Nc1ccncc1)C(=O)c1cn(S(=O)(=O)c2ccc(Br)cc2)c2ccccc12,3.71,> 100,3.67,38.7,19.9,> 100,15.6,> 100,11.8,> 100,2.82,> 100,2.14,22.4,19,> 100,46.3,> 100,23.6,> 100
COc1ccccc1C(=O)/C=C/c1cc2cccc(OC)c2[nH]c1=O,< 0.0225,0.632,0.0668,4.9,0.554,14.9,0.069,12.6,0.112,1.37,< 0.0131,4.02,0.115,2.07,0.0331,0.714,0.0401,1.38,0.141,1.3
C1CCC([PH+](C2CCCCC2)C2CCCCC2[PH+](C2CCCCC2)C2CCCCC2)CC1.[Au].[CH-]1CCCCC1C1CCCC[N-]1 (stereo unspecified),–,–,0.314,1.89,0.275,1.14,–,–,0.294,1.36,–,–,0.241,1.14,0.401,2.44,0.43,1.9,–,–
O=[N+]([O-])c1ccc(N/N=C\c2cc(Cl)ccc2O)nc1,1.2,12.5,1.96,11.9,4.25,37.3,2.79,16.1,3.23,14.9,4.9,> 100,6.68,> 100,1.22,13.1,2.18,11.2,–,–
O=C(CCCc1c[nH]c2ccccc12)NC1CC(=O)c2c(Br)sc(Br)c21 (stereo unspecified),–,–,18.3,33,22.7,55.2,33.4,> 100,17.4,37.1,7.13,22,17.9,40,23.5,> 100,19.2,34.9,2.06,4.03
Cc1ccc(-c2c(C#N)c(N)nc(N3CCOCC3)c2C#N)o1,33.5,> 100,26.4,> 100,–,–,57.1,> 100,62.9,> 100,30.1,> 100,23.6,> 100,43.5,> 100,19.1,57.9,–,–
NC(N)=NC(CC(=O)O)c1ccccc1 (stereo unspecified),–,> 100,–,> 100,–,> 100,–,> 100,–,> 100,–,> 100,–,> 100,–,> 100,–,> 100,–,–
COc1cccc(NC(=O)c2sc3nc4c(cc3c2N)CCCC4)c1,0.475,> 100,0.59,18.2,0.473,29.4,0.58,> 100,0.497,25.4,–,–,0.598,24.7,0.542,56.1,0.42,19.2,1.6,> 100
O=S(=O)(c1ccc(NC(=S)N/N=C/c2ccccc2O)cc1)N1CCCCC1,–,7,–,4.45,–,37.9,–,> 31.7,–,> 100,–,> 68.8,–,66.1,–,> 47.4,–,4.34,–,–
COc1ccc(/C(=C/c2cc(OC)c(OC)c(OC)c2)[N+](=O)[O-])cc1,–,–,2.64,5.93,4.96,17,3,10.3,1.7,3.2,3.68,8.98,1.44,3.09,1.75,3.14,1.66,3.05,1.81,3.28
